The text below walks through data of a melting point compilation (Tetko et al.; mined from patent text by program, amines drawn as free bases though some values may be those of a salt).

Each structure is given as a SMILES string.

Broadly, the melting point is the temperature of the solid-liquid transition. `O=c1[nH]c2[nH]c3ccccc3c2c2ccccc12` yielded a melting point above 310 °C.

`CS(=O)(=O)CCCCCn1c(C(F)(F)F)nc2c(N)nc3ccccc3c21`: the melting point is 192 to 195 °C.

`COc1cc(C2CCN(CCF)CC2)ccc1Nc1ncc2ccc(-c3ccccc3N(C)S(C)(=O)=O)n2n1` displayed a melting point of 90 to 97 °C.

With `OCCOc1ccc2ccn(C3CCN(CCc4ccc(F)cc4)CC3)c2c1`, the melting point fell in the range of 118 to 119 °C.

Regarding `O=[N+]([O-])c1cc(Cl)c(N=C=S)c(Cl)c1`, the melting point lay in the range of 74 to 77 °C.

`CC(O)c1cc(S(N)(=O)=O)ccc1F` (stereo not given): the melting point lay in the range of 150 to 152 °C.

Take `COC(=O)c1ccc(Cn2c(=O)c(C)c3sc(C(=O)NCc4ccc(F)cc4)cn3c2=O)cc1C`: the melting point fell in the range of 179 to 180 °C.

`O=C1CCC(N2C(=O)c3cccc(OCc4ccc(CN5CC6CCC(C5)O6)cc4)c3C2=O)C(=O)N1` (stereo not given) registered a melting point of 196 to 198 °C.

Take `COc1ccc2c(c1)NCc1ccccc1O2`: the melting point fell in the range of 110 to 112 °C.

With `CC1(C)C=Cc2cc(S(=O)(=O)C[N+](=O)[O-])ccc2O1`, the melting point worked out at 81 °C.

The compound `CCCCCC(=O)C=Cc1cc(O)c2c(c1)OC(C)(C)C1CC=C(C)CC21` (stereo not given) displayed a melting point of 119 °C.

`CCOC(=O)c1nc2cccnc2n(-c2ccc(Cl)cc2)c1=O` showed a melting point of 158 °C.

Consider `C=Cc1c(-c2ccccc2)coc1C(=O)NNC(=O)c1ccc(O)c(C#N)c1`, for which the melting point lay within 170 to 174 °C.

The compound `O=C(NCCCBr)c1cnccc1C(F)(F)F` showed a melting point of 61 to 63 °C.

For `COc1ccc2ncc(C#N)c(Nc3ccc(Cl)cc3F)c2c1`, the melting point is above 250 °C.

The compound `CCCC1(C(=O)NCCCCCO)c2ccccc2-c2ccccc21` yielded a melting point of 48 to 51 °C.

The compound `N#Cc1cn(N(CO)c2c(Cl)cc(Cl)cc2Cl)c(=O)[nH]c1=O` had a melting point above 300 °C.

With `CCCCCNC(=O)N(C)c1cccc(-c2ccc(C=C(OCC)C(=O)O)cc2OCCCC)c1`, the melting point amounted to 59 °C.

The compound `CN(C)C1(c2ccccc2)CCC(CNC(=O)N2CCCC(c3c[nH]c4ccc(F)cc34)C2)CC1` (stereo not given) registered a melting point of 98 to 101 °C.

`C#CCCCOc1c(C)cc(C#N)cc1C` displayed a melting point of 48 to 49 °C.

Compound `CC1CCc2c(N3CCNCC3)ccc3c2N1C=C(C(=O)O)C3` (stereo not given) registered a melting point of 264 to 265 °C.

The compound `CNCc1cccc(NC(=O)c2c[nH]c3c2C(=O)CCC3)c1` gave a melting point of 130 to 132 °C.

Take `CN(C(=O)OC(C)(C)C)c1cc(Oc2ccccc2N2CCCC2)ccc1N`: the melting point lay in the range of 136 to 138 °C.

On to `Cn1c(COc2cccc(C(=O)O)c2)nc2ccc(Oc3cccc(OC(F)(F)F)c3)cc21`, for which the melting point lay in the range of 221 to 227 °C.

Consider `COc1cc(C(=O)NS(=O)(=O)c2ccccc2C)ccc1Cc1c[nH]c2ccc(NC(=O)CC3CCCC3)cc12`, for which the melting point is 248 to 250 °C.

`CC(=O)N1CCN(Cc2cc(C)c(O)c(C)c2)CC1` showed a melting point of 150 to 151 °C.

As to `N#CCN1C(=O)COc2cc(F)c([N+](=O)[O-])cc21`, the melting point lay within 196 to 200 °C.

For `N#Cc1cccc(-c2ccc3c(Cl)cnc(Cl)c3c2)c1`, the melting point is above 300 °C.

In turn, `CCCCSc1cc(N)c([N+](=O)[O-])cc1N` yielded a melting point of 129 °C.

With `CCCc1nc2c(N)nc3cccnc3c2n1CCOCCON=C(C)C`, the melting point was in the range of 127 to 128 °C.

Compound `COC1Cc2nc3cc(N)ccc3n2C1` (stereo not given) gave a melting point of 140 to 142 °C.

`CCOC(=O)c1csc(C)c1N(CC)c1nc(C)cc(C)n1` gave a melting point of 99 to 100 °C.

Take `CC(C)C[C@H](NC(=O)[C@H](CS)C(F)(F)F)c1nnn[nH]1`: the melting point was in the range of 183 to 184 °C.

Turning to `O=C(O)c1ccc2cc(-c3ccc(CC(O)CO)c(C45CC6CC(CC(C6)C4)C5)c3)ccc2c1` (stereo not given), the melting point was 258 °C.

The compound `CCOc1nccc(CC(=O)O)c1NC(=O)OC(C)(C)C` displayed a melting point of 94 to 95.5 °C.

For the compound `CCN(CC)c1cccc2nc3n(c12)CC(F)(F)CN3c1ccc(Cl)cc1Cl`, the melting point is 125 to 127 °C.

Turning to `O=C(Cl)c1ncn(Cc2ccc(Cl)c(Cl)c2)c1C(=O)Cl`, the melting point lay within 126 to 128 °C.

`Cn1nc(N)nc1NCCCOc1cccc(CN2CCCCC2)c1` showed a melting point of 94 to 95 °C.

Compound `CCCC(C(=O)OCC)N1CC(COc2cccc(Cl)c2)OC1=O` (stereo not given) registered a melting point of 43 to 49 °C.

As for `Brc1cnn(Cc2ccccc2)c1`, the melting point fell in the range of 51 to 52 °C.

In the case of `COC(=O)c1c(C)c(O)cc(OC)c1Br`, the melting point lay within 105 to 110 °C.

In turn, `O=c1oc(-c2ccc(OCCCc3ccccc3)cc2)cc(O)c1SCCc1ccccc1` showed a melting point of 139 to 142 °C.

On to `CSC(=O)C(C#N)C(=O)Nc1ccc(C(F)(F)F)cc1` (stereo not given), for which the melting point lay within 196 to 198 °C.

`COC(=O)CCc1c(CCO)ccc2c1CCC(NS(=O)(=O)c1ccc(Cl)cc1)C2` (stereo not given) gave a melting point of 132 °C.

With `CCCCCCCCCCCCC1CC(=O)CCC1=O` (stereo not given), the melting point came out at 73 °C.

`COc1ccc2nc(SCc3nccc(N4CCOCC4)c3Cl)[nH]c2n1`: the melting point was found to be 210 °C.

In the case of `CCOC1=C(N(C(C)=O)C(C)C)C(=O)c2cnn(C)c2C1=O`, the melting point was 154 to 155 °C.

As for `COC(=O)C(Cc1cc(Br)c(S(=O)(=O)c2ccc(OC)c(C(C)C)c2)c(Br)c1)C(=O)OC`, the melting point is 121 to 123 °C.

The compound `CC(=O)C(C(=O)c1ccccc1)N(C)C` (stereo not given) had a melting point of 72 to 74 °C.

Consider `CC(C)(C)C(=O)SC1CCN(C(C(=O)C2CC2)c2ccccc2F)CC1` (stereo not given), for which the melting point lay in the range of 88 to 89 °C.

`O=C(Nc1ccc(CCCCn2ccnn2)cc1)c1coc(C=Cc2ccc(C(F)(F)F)cc2)n1`: the melting point lay within 183 to 185 °C.

For the compound `COC(=O)c1ccc(OCCCCCCc2ccc3cc(OCc4ccccc4)c(OCc4ccccc4)cc3c2)cc1O`, the melting point was in the range of 129 to 131 °C.

`CCOC(=O)c1cnc2n(c1=O)CCCC2CC(=O)O` (stereo not given) registered a melting point of 156 to 157 °C.

In turn, `OC1CCSC(=S)N1Cc1ccco1` (stereo not given) displayed a melting point of 42 to 43 °C.

As for `CC(C)Oc1ccc2c(c1)Oc1cccc(F)c1S2(=O)=O`, the melting point is 151 to 152 °C.

`NC(=O)c1nnn(Cc2ccc(S(=O)c3ccc(Cl)cc3)c(Cl)c2)c1N` (stereo not given) had a melting point of 237 to 238 °C.

In turn, `OCc1ccc(OCCCCCSc2ccnc3cc(C(F)(F)F)ccc23)cc1` returned a melting point of 98.3 °C.

With `Cc1ccc(S(=O)(=O)OCC(C)C2CCC3C4CC=C5CC(O)CC(O)C5(C)C4CCC23C)cc1` (stereo not given), the melting point fell in the range of 91 to 99 °C.

For the compound `CC(C)Cc1c2c(nn1C)c(N)nc1ccccc12`, the melting point fell in the range of 213 to 214 °C.

Compound `O=C(CO)c1ccc(C2CCCCC2)cc1` had a melting point of 104 to 106 °C.

Compound `Cc1cc(SCc2sc(-c3ccc(C(F)(F)F)cc3)nc2C)c2c(c1OCC(=O)O)CCO2` gave a melting point of 157 to 158 °C.

Take `COC(=O)[C@@H](C)Nc1ncccc1NC(=O)c1ccc(Cl)cc1`: the melting point lay in the range of 125 to 134 °C.

Compound `O=C1NC(=O)C(c2ccc3cc(-c4ccc(O)c(C56CC7CC(CC(C7)C5)C6)c4)ccc3c2)S1` (stereo not given) showed a melting point of 312 to 314 °C.

As to `CCOC(=O)c1c(=O)c2cc(F)c(F)cc2n2ccccc12`, the melting point was determined as 200 °C.

`CN(C(=O)c1cc(=O)n(C)c2ccc(C(=O)c3ccc(Cl)cc3)cc12)c1cccc(Cl)c1`: the melting point was 184 °C.

`N#Cc1ccc(C=NNS(=O)(=O)c2ccccc2)cc1` displayed a melting point of 209 to 213 °C.

With `O=Cc1ccc2cc(OCc3ccccc3)ccc2c1`, the melting point is 107 to 108 °C.

On to `CCCCOC(=O)C(=O)c1ccc2c(c1)C1(C)CCN(C)C1N2C` (stereo not given), for which the melting point was in the range of 56 to 61 °C.

In turn, `Cc1c(CC2CCc3c(c4ccccc4n3Cc3ccccc3)C2=O)ncn1C(c1ccccc1)(c1ccccc1)c1ccccc1` (stereo not given) had a melting point of 78 to 80 °C.

For `O=C(O)CCCOc1ccc(CCNC(=O)C2Cc3ccccc3N2S(=O)(=O)c2ccc(-c3cccc(C(F)(F)F)c3)cc2)cc1` (stereo not given), the melting point was found to be 70 °C.

`CCOC(=O)COc1ccc2c(c1)CCC2=O` showed a melting point of 59 to 61 °C.

Compound `COn1c(C)nc2c(NCc3c(C)cccc3C)cc(Br)cc21` had a melting point of 171 to 172 °C.

`COC(=O)c1cc2c(n(Cc3ccc(C#N)cc3)c1=O)CCCCCC2` returned a melting point of 72 to 75 °C.

The compound `O=C(Nc1nc2ccccc2c(=O)n1-c1ccccc1)c1ccccc1` came in with a melting point of 185 to 188 °C.

As to `CCCCCS(=O)(=O)c1cccc(-c2nc(=O)c3ccccc3s2)n1`, the melting point lay in the range of 160 to 161 °C.

`Nc1ncccc1-c1nc2ccc(-c3cccnc3)nc2n1-c1ccc(NC(=O)c2ccccc2)cc1` came in with a melting point of 222 to 224 °C.

Consider `CC(=O)Nc1ccc2oc([N+](=O)[O-])c(-c3ccccc3)c2c1`, for which the melting point fell in the range of 204 to 207 °C.

Regarding `CCOC(=O)c1snnc1C`, the melting point was in the range of 59 to 61 °C.

Regarding `Cc1cc(C)cc(C(=O)c2c(-c3ccc(OCCCN(C)C)cc3)oc3ccccc23)c1`, the melting point is 103 to 106 °C.

In turn, `COc1ccc2cc([C@H](C)C(=O)OC[C@](C)(O)CO)ccc2c1` had a melting point of 65 to 66 °C.

`Cc1cc(S(=O)(=O)F)ccc1Br` showed a melting point of 47 to 48 °C.

Take `O=C1NCC(C(F)(F)F)C(=O)N1Cc1ccccc1` (stereo not given): the melting point lay within 129 to 130 °C.

In turn, `Cc1c(Cl)c([N+](=O)[O-])cc([N+](=O)[O-])c1Cl` came in with a melting point of 131 to 132 °C.

In the case of `O=c1n(CC(F)(F)F)c2cc(F)ccc2n1C1CCNCC1`, the melting point was above 280 °C.

The compound `COC(=O)C(C)(Cc1c[nH]c2ccc(OC)cc12)[N+](=O)[O-]` (racemic) gave a melting point of 109 to 110 °C.

Turning to `CN(C)c1nc(N)c(C#N)nc1C#N`, the melting point is 201 to 202 °C.

On to `COc1cc(C=C(Cl)Cl)nc(N)n1`, for which the melting point was 90 to 91 °C.

Take `N#Cc1c(-c2ccccc2)nn2ccccc12`: the melting point was 138 to 139 °C.

For the compound `COc1ccc2c(c1)C1(CCN(CCCC(=O)c3ccc(F)cc3)C1)CC2O` (stereo not given), the melting point lay in the range of 163 to 165 °C.

For the compound `Cc1c(C=O)cccc1C(=O)c1ccc(Cl)cc1`, the melting point is 68 °C.
